How the values were obtained:
[1] = tested on: T.b. brucei, T.b. gambiense and T.b. rhodesiense; experiment: Procyclic trypomastigote (TRY) in-vitro screen; assay type: cell-based; note: key: - no/poor activity,; + fair/moderate activity,; ++ good/excellent activity
Description: (§1) Primary screening for new trypanocides has made extensive use of rodent systems, in which host survival time is a simple indicator of drug activity. In-vitro screens have used a variety of trypomastigote types (see Table 3, below). […] Most early in-vitro screens employed a short test in which bloodstream trypomastigotes were isolated from an infected rodent and maintained for up to 24 h in a simple drug-containing media. Two significant modifications of this technique include maintaining isolated bloodstream trypomastigotes in drug-containing media for 3-4 hours at 37° C in micro-titre plates and their subsequent viability assessed by the uptake of radiolabelled precursors or motility and infectivity to mice.
(§2) In-vitro and in-vivo models were used to test activities of a selection of many compounds. Those activities are summarized in Tables 1-3, showing variation between systems and species. Activities measured in the MP mo and HM mo models have shown the best correlation with results obtained in hamster and mouse models.

[2] = tested on: T.b. brucei, T.b. gambiense and T.b. rhodesiense; experiment: Isolated bloodstream trypomastigote (TRY) in-vitro screen; assay type: cell-based
Description: as §1
In-vitro studies on isolated bloodstream trypomastigotes were also used in the rational biochemical approaches towards the chemotherapy of T. brucei infections involving inhibitors of carbohydrate catabolism salicyl hydroxamic acid plus glycerol), of polyamine synthesis (methylgyoxal bis-guanylhydrazone and - DFMO), and of surface coat glycoprotein synthesis (Tunicamycin). In these studies, activity of the compounds are shown in-vitro and in-vivo, whereas the sensitivity of isolated bloodstream trypomastigotes to toxic oxygen radicals generated by naphthoquinones was not shown by the parasites in mice. The activity of the standard anti-trypanosomals-melarsoprol, pentamidine and suramin and tested compounds according to the present invention in in-vitro systems is shown in Table 3.
as §2

H9 cells = experiment: Cytotoxicity on uninfected H9 cells, 10 days continuous exposure; assay type: cell-based, human; conditions: read-out: ID50 - The concentration of IPA which kills 50% of the cells
Description: The "Percent Dead Cells" are taken from Tables la(d) (iii) and la(d) (v) using the 10-day value, and the therapeutic index have been calculated for each drug concentration. The results of IPA are also graphed in Figures 16 and 17. Cytotoxicity (the dashed line) is calculated as the percent live cells.
The availability of toxicity data collected in the same time frame as required for determination of antiviral effectiveness allowed determination of values for two different cell lines. Figures 16 and 17 illustrate the curves obtained by plotting the cytotoxicity of IPA (as a percent of the control cell viability) versus the percent of inhibition of HIV-1 replication (as a percent of the control titer) when H9 and 81-66-45 cells were tested. The cytotoxicity data obtained with 10 days continuous exposure, using uninfected cells, were used since 10 days was the length of time required to carry out the infectivity test. As is apparent from Tables la-(d) (ii) - la(d) (v), toxicity is much lower when the drug is added to cells for one day and then removed, or when cells are exposed for only 1 or 4 days. It is difficult to mimic in-vivo exposure times, particularly if metabolites are more toxic than the parent compound and are readily cleared in-vivo but not in-vitro.

[3] = tested on: monocyte/macrophage cultures; experiment: Appearance and differentiation of monocyte/macrophage cultures in Experiment la(a); assay type: cell-based
Description: Fresh macrophage cultures were obtained by incubation of mononuclear cells obtained from a leukopak directly in the wells of a microtiter plate having 6 wells per row. After removal of non-adherent cells, each row of the adherent macrophages was infected with 10-fold serial dilutions of HIV-I, with the use of polybrene to enhance uptake of the virus. After one to two hours, the virus inoculum was removed and replaced with fresh normal growth medium. The fresh medium for each row contained a particular concentration of AZT, dideoxy cytidine (ddC), or compound la, as indicated by the left-hand column of Table la(a). The first row of wells acted as a control, and to it was added fresh medium containing none of the three drugs. Medium levels were maintained for two to four weeks to allow replication of the virus to take place, with at least one complete fluid change to remove residual virus inoculum. The contents of each well were then tested for the level of HIV p24 antigen present using a commercially available antigen capture kit employing a radio-immunoassay which can detect as little as 10'^9gm of p24 present in a sample. The above procedure was done in duplicate runs.

HIV-I = experiment: Experiment la(a): macrophage cells, HIV-I, p24 antigen capture radio-immunoassay; assay type: cell-based; conditions: Human immunodeficiency virus 1, Monocyte; Monocytes; HIV-1; as read from Figure 15

`CC(C)=CCNc1ncnc2c1ncn2[C@@H]1O[C@H](CO)[C@@H](O)[C@H]1O` [IPA, N^6-(Δ^2-isopentenyl) adenosine] was tested, and the “activity, procyclic TRY” value [1] was “+”, the “activity, isolated bloodstream TRY” value [2] was “+” and the CC50 (H9 cells) was 50 µM. The “appearance of monocyte/macrophage cultures” value ([3]; all concentrations of IPA used (3-1000 μM)) was “appeared to be healthy”, the “differentiation of small immature monocytes into large adherent macrophage cells” value ([3]; in the presence of IPA) was “did not take place” and the IC50 (HIV-I) was 6 µM. The IC90 (HIV-I) was 10 µM.

Source: patent EP0462621A2, “Use of particular compounds for manufacture of pharmaceutical formulations for treatment against various parasites, mycoplasmas, other indications and other infections” (Prendergast, Patrick Thomas, priority 1990, dated 1991)
